Like-named read-outs stand apart in the source and are kept apart here.
Legend:
[1] = test system: L. donovani; assay: In vitro antiparasitic assay against L. donovani amastigotes (PicoGreen); assay type: cell-based; conditions: Leishmania donovani, I = inactive at 10 µg/mL
Description: Promastigotes cultures of L. donovani are maintained in continuous log phase growth in Liver Infusion Tryptose (LIT) Medium, pH 7.2, supplemented with 10 % Fetal Bovine Serum (FBS) at 28 °C. For promastigote transformation into amastigote forms, 1 mL of promastigotes log phase culture is transferred into 5 mL of Medium 199 Modified (SIGMA-Cat M3769) pH 5.5, supplemented with 0.1 g/L L-glutamine, 2.2 g/L sodium bicarbonate, 2 g Glucose, 5 mL penicillin–streptomycin and 20 % FBS and maintained at 35 °C until its use for bioassays.
(§1) Dry samples were diluted in 100 % DMSO (dimethylsulfoxide) to obtain a concentration of 4 mg/mL. Samples are used immediately in the bioassay and stored at −20 °C in the dark until results are obtained. All assays are performed in sterile 96-well microtitre culture plates (Costar Cat 3595). In a primary screening samples are tested in duplicate wells at a final concentration of 10 μg/mL. […] The IC50 is analyzed with the Excel Add-On software LSW Data Analysis Tool. The concentration that inhibited the growth of the parasites to 50 % (IC50) was calculated through the inhibition curve of the obtained optical density values, and compared to the untreated controls.
(§2) L. donovani and P. falciparum A […] is used to determine the amount of parasites in culture. After 48 and 72 h incubation, respectively, 1 % PicoGreen® solution is added to all wells in the dark. After shaking, the plate is taken into a microplate reader employing 485/20 nm excitation and 528/20 nm emission filter sets.

[2] = test system: P. falciparum; conditions: read-out: IC50 of positive control for P. falciparum; positive control range; cited from earlier work
[3] = Cytotoxicity bioassay (MTT); assay type: cell-based; conditions: African green monkey, five days, I = inactive at 10 µg/mL
Description: Vero cells were seeded in 96-well plates in RPM-I1640 medium supplemented with 10 % FBS and 1 % penicillin/streptomycin. The cells were allowed to grow for 24 h before adding the test compounds, dissolved in DMSO, to final concentrations of 10, 4, 0.2 and 0.08 µg/mL. A sample with only a volume of DMSO similar to the added volume in the compounds samples was placed as a negative control in all plates. All samples were incubated for five days before staining and examining for reduction of 3-(4,5-dimethylthiazol-2-yl)-2,5-diphenyltetrazolium bromide (MTT) and analyzed 4 h later in a color plate reader at 570 nm.

[4] = test system: P. falciparum; assay: In vitro antiplasmodial assay, chloroquine-resistant strain Indochina W2 (PicoGreen); assay type: cell-based; conditions: Plasmodium falciparum, I = inactive at 10 µg/mL, read-out: Antiparasitic activity IC50, P. falciparum
Description: The cultures are kept in synchrony by thermal cycling incubation and are maintained in continuous log phase growth in RPM-I1640 medium (SIGMA) supplemented with 2 % washed human O Rh positive (+) erythrocytes, 25 mM HEPES, […] NaHCO3, and 10 % Human Serum from an O Rh+ donor. All cultures and assays are conducted at 37 °C under an atmosphere of 5 % CO2 and 5 % O2, with a balance of N2 (90 %).
as §1, §2

[5] = test system: T. cruzi; assay: In vitro T. cruzi growth inhibition, Tulahuen clone C4 expressing β-galactosidase, in Vero cells; assay type: cell-based; conditions: Trypanosoma cruzi, strain Tulahuen, I = inactive at 10 µg/mL, read-out: Antiparasitic activity IC50, T. cruzi
Description: T. cruzi (Tulahuen) C4 strain lactosidase (Lac Z) gene. The strain is maintained on VERO Cells (African Green Monkey cell line obtained from ATCC on 2006), grown in monolayers in RPM-I1640 medium, supplemented with 10 % heat inactivated FBS. All cultures and assays are conducted at 37 °C under an atmosphere of 5 % CO2/95 % air mixture.
as §1
T. cruzi In this assay, a colorimetric method is used to determine the inhibition of parasite growth as detected by reduction of β-galactosidase (β-Gal) as a reporter gene, expressed by the Tulahuen clone C4 of T. cruzi. Assays are performed on […], the intracellular form of the parasite infecting African green monkey kidney (VERO) cells, exposed during 120 h to different concentrations (50, 10 and 2 µg/mL) of the test substance. The resulting colour from the cleavage of chlorophenol red-β-D-galactoside (CPRG) by β-Gal expressed by the parasite, was measured using a Benchmark Bio-Rad microplate reader at 570 nm.

[6] = target: α-glucosidase from baker's yeast; assay: α-Glucosidase inhibitory assay (PNP-G substrate) and kinetic analysis; assay type: biochemical, S. cerevisiae
Description: Lineweaver–Burk plots were constructed using different concentrations of substrate and triterpenes 1–5.
The α-glucosidase inhibitory assay was performed according to Chan and collaborators (2010), with modifications. α-glucosidase from baker’s yeast purchased from Sigma Chemical Co. The inhibition was measured spectrophotometrically at pH 7.0 and 37 °C employing 2 mM p-nitrophenyl α-D-glucopyranoside (PNP-G) as a substrate and 32 mU/mL of enzyme, in 100 mM potassium phosphate buffer (enzyme stock). […] The absorbance (A) of 4-nitrophenol released by the hydrolysis of PNP-G was measured at 400 nm by Synergy HT Bio Tek microplate spectrophotometer. […] After incubating, 150µL of substrate was added and further incubated for 20 min at 37 °C. All assays are performed in 96-well microplates (Greiner bio-one 655101) in duplicate. The activity of samples was calculated as a percentage in comparison to a control (DMSO or MeOH instead of sample solution) according with the following equation:
%Inhibition=(ΔAcontrol-ΔAsample)/ΔAcontrol×100%
The concentration required to inhibit activity of the enzyme by 50 % (IC50) was calculated by regression analysis.

[7] = test system: T. cruzi; conditions: read-out: IC50 of positive control for T. cruzi; positive control range; cited from earlier work
[8] = pH 7.0, 37 °C, 2 mM PNP-G, read-out: α-glucosidase inhibition IC50
[9] = α-glucosidase IC50 in Table 2, read-out: IC50
[10] = read-out: IC50, Vero cells (cytotoxicity)

Compound | IC50 [1] | IC50 [2] [µM] | IC50 at 5 days ([3]; Vero cells) | IC50 [4] | IC50 [5] | IC50 [6, 8] [µM] | IC50 [6, 9] [µM] | IC50 at 5 days [3, 10] | α-glucosidase inhibition IC50 ([6]; pH 7.0, 37 °C, 2 mM PNP-G) | melting point [°C] | IC50 [7] [µM] | type of α-glucosidase inhibition (Lineweaver–Burk plots) ([6]; different concentrations of substrate and inhibitor)
C[C@@H]1[C@H](O)[C@@H](C)/C=C/C=C/C=C/C=C/C=C/C=C/C=C/[C@H](O[C@@H]2O[C@H](C)[C@@H](O)[C@H](N)[C@@H]2O)C[C@@H]2O[C@](O)(C[C@@H](O)C[C@@H](O)[C@H](O)CC[C@@H](O)C[C@@H](O)CC(=O)O[C@H]1C)C[C@H](O)[C@H]2C(=O)O [Anfotericine B, Amphotericin B, reference compound] | 1 ± 0.12 µM | – | – | – | – | – | – | – | – | – | – | –
CCN(CC)CCCC(C)Nc1ccnc2cc(Cl)ccc12 (centres unmarked) [Chloroquine] | – | 0.08 to 0.1 | – | – | – | – | – | – | – | – | – | –
C[C@H]1[C@H](C)CC[C@]2(C)CC[C@]3(C)C(=CC[C@@H]4[C@@]5(C)CC[C@H](O)C(C)(C)[C@@H]5CC[C@]43C)[C@H]12 [Compound 1, α-amyrine] | > 10 µg/mL | – | > 10 µg/mL | > 10 µg/mL | 19 ± 0.6 µM | 1.45 | 1.45 | – | – | – | – | –
CC1(C)CC[C@]2(C)CC[C@]3(C)C(=CC[C@@H]4[C@@]5(C)CC[C@H](O)C(C)(C)[C@@H]5CC[C@]43C)[C@@H]2C1 [Compound 2, β-amyrine] | > 10 µg/mL | – | – | > 10 µg/mL | > 10 µg/mL | 0.02 | 0.02 | > 10 µg/mL | – | – | – | –
C[C@H]1[C@H](C)CC[C@]2(C(=O)O)CC[C@]3(C)C(=CC[C@@H]4[C@@]5(C)CC[C@H](O)C(C)(C)[C@@H]5CC[C@]43C)[C@H]12 [Compound 3, ursolic acid] | 2.4 ± 0.1 µM | – | 64.8 ± 0.3 µM | 21.9 ± 0.6 µM | > 10 µg/mL | 1.08 | 1.08 | – | – | – | – | –
CC1(C)CC[C@]2(C(=O)O)CC[C@]3(C)C(=CC[C@@H]4[C@@]5(C)CC[C@H](O)C(C)(C)[C@@H]5CC[C@]43C)[C@@H]2C1 [Compound 4, oleanolic acid] | 5.3 ± 0.2 µM | – | 140.8 ± 0.5 µM | > 10 µg/mL | > 10 µg/mL | 0.98 | 0.98 | – | – | – | – | –
C=C(C)[C@@H]1CC[C@]2(C(=O)O)CC[C@]3(C)[C@H](CC[C@@H]4[C@@]5(C)CC[C@H](O)C(C)(C)[C@@H]5CC[C@]43C)[C@@H]12 [Compound 5, betulinic acid] | > 10 µg/mL | – | – | 18 ± 0.4 µM | > 10 µg/mL | 2.37 | 2.37 | 131.1 ± 0.3 µM | – | – | – | –
[O-][S@+]1C[C@H](O)CS1 [Compound 6, brugierol] | > 10 µg/mL | – | > 10 µg/mL | > 10 µg/mL | > 10 µg/mL | – | – | – | inactive | – | – | –
[O-][S@@+]1C[C@H](O)CS1 [Compound 7, iso-brugierol] | > 10 µg/mL | – | > 10 µg/mL | > 10 µg/mL | > 10 µg/mL | – | – | – | inactive | 82 to 83 | – | –
O=c1c(O)c(-c2ccc(O)cc2)oc2cc(O)cc(O)c12 [Compound 8, kaempferol] | 22.9 ± 0.2 µM | – | 154.9 ± 0.6 µM | > 10 µg/mL | > 10 µg/mL | 262 | – | – | – | – | – | –
O=c1c(O)c(-c2ccc(O)c(O)c2)oc2cc(O)cc(O)c12 [Compound 9, quercetin] | 12.6 ± 0.2 µM | – | > 10 µg/mL | 9.7 ± 0.3 µM | 13 ± 0.4 µM | 29.8 | – | – | – | – | – | –
CC1CS(=O)(=O)CCN1/N=C/c1ccc([N+](=O)[O-])o1 (centres unmarked) [Nifurtimox, reference compound] | – | – | – | – | 1.6 ± 0.11 µM | – | – | – | – | – | 0.15 to 13.4 | –
C[C@H]1O[C@H](O[C@H]2[C@H](O)[C@@H](O)[C@@H](O[C@H]3[C@H](O)[C@@H](O)C(O)O[C@@H]3CO)O[C@@H]2CO)[C@H](O)[C@@H](O)[C@@H]1N[C@H]1C=C(CO)[C@@H](O)[C@H](O)[C@H]1O (some centres unmarked) [acarbose, reference compound] | – | – | – | – | – | – | – | – | – | – | – | competitive inhibitor

Source: PMC4586009, “Phytochemical composition, antiparasitic and α–glucosidase inhibition activities from Pelliciera rhizophorae” (Chemistry Central Journal, 2015)
